Series [1] relates to PC-3M prostate cancer cells. Particulars: PC-3M cells, MTT; cited from earlier work.
The test system of series [2] is PC-3M prostate cancer cells. The conditions noted are these: PC-3M cells, spheroid disaggregation; cited from earlier work.
Series [3] has as its system PC-3M prostate cancer cells. Particulars: mice; cited from earlier work.
The conditions of series [4]: in vivo, up to 200 mg/kg; cited from earlier work.
Series [5] deals with prostate cancer cells. The conditions noted are these: even at 200 µM in vitro; cited from earlier work.
In series [6] the target is Recombinant GSK-3β (Homo sapiens, UniProt P49841). Nature of the series: in vitro GSK-3β inhibitory assay using Tau [pS396] phosphoELISA kit.
Sequence of Recombinant GSK-3β (P49841 whole entry): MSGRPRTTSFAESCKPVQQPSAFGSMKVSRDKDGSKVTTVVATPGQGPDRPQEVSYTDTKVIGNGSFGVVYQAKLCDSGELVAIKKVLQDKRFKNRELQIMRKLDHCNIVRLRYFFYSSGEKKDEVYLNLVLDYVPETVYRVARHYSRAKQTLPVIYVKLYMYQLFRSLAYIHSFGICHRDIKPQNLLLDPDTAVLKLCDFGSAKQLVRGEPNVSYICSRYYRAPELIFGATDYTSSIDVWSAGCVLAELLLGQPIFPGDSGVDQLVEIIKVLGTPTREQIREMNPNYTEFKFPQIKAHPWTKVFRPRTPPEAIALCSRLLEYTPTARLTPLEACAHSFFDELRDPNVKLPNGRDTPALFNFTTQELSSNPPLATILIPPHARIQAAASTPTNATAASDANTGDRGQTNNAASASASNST

`O=C1NC(=O)/C(=C/c2ccc(O)cc2)N1` [Compound 1, (Z)-5-(4-hydroxybenzylidene)-hydantoin]: the “in vitro anti-growth / proliferation” value in series [1] is given as “potent”. Also, in series [2], the “in vitro anti-invasive properties / invasion” value is on record as “potent”. Moreover, in series [3], the “cytotoxic effects at the test doses” value was “without apparent cytotoxic effects”, the “formation of tumor micrometastases in distant organs” value is reported as “inhibited” and the orthotopic tumor growth result is listed as “decreased”.
For the compound `CCSc1ccc(/C=C2\NC(=O)NC2=O)cc1` [Compound 2, (Z)-5-(4-(ethylthio)benzylidene)-hydantoin], the “in vitro anti-growth / proliferation” value in series [1] is “potent”. In series [2], the “in vitro anti-invasive properties / invasion” value is recorded as “potent”. Besides, in series [3], the “cytotoxic effects at the test doses” value is “without apparent cytotoxic effects”, the “formation of tumor micrometastases in distant organs” value is recorded as “inhibited” and the orthotopic tumor growth entry is “decreased”.
As to `CCN(CC)c1ccc(/C=C2\NC(=O)NC2=O)cc1` [Compound 3], in series [4], the CNS-depressant effects entry is given as “did not show CNS-depressant effects”. The cytotoxicity entry in series [5] is “lack of cytotoxicity”.
For `COc1cccc(/C=C2\NC(=O)NC2=O)c1` [Compound 4], the IC50 in series [6] was 14.1 ± 1.9 µM.

What is called IC50 is the concentration at which inhibition is half-maximal.

Values taken from PMC2743475 (Bioorganic & medicinal chemistry, 2009).
